This note sets out measurements from PubChem BioAssay (NCI).

Each structure is given as a SMILES string.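 Tested at 5 concentrations; 48 h exposure; 96-well plates; endpoints linearly interpolated, else capped at highest concentration. At the GI50, growth is halved. TGI is the concentration that stops growth completely.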

Some test systems named below: OVCAR-3 ovarian; OVCAR-5 ovarian; HCT-116 colon; ACHN renal; LOX IMVI melanoma; TK-10 renal; MDA-MB-435; HCC-2998 colon; SW-620 colon; UACC-257 melanoma.
Common to all, as to assay: inhibition of tumour cell growth, NCI panel, 48 h

As for `COc1ccc2c(CC(=O)O)cc(=O)oc2c1`, the TGI in the assay on OVCAR-3 ovarian, with OVCAR-5 ovarian, in the assay with HCT-116 colon, in the assay with ACHN renal, in the assay with LOX IMVI melanoma and in the assay with TK-10 renal was greater than 100 µM in each case. The TGI in the assay on MDA-MB-435, with HCC-2998 colon, in the assay on SW-620 colon and with UACC-257 melanoma was greater than 100 µM each time.
`COc1ccccc1CNCCCN1C(=O)c2ccc3c4c(ccc(c24)C1=O)C(=O)N(CCCNCCCCNCCCCN)C3=O`: the GI50 with OVCAR-3 ovarian is 0.475 µM; in the assay on OVCAR-5 ovarian, 2.23 µM; in the assay with HCT-116 colon, 0.407 µM; with ACHN renal, 2.82 µM; with LOX IMVI melanoma, 0.941 µM; in the assay on TK-10 renal, 3.71 µM. In addition, the GI50 is 1.62 µM with MDA-MB-435, 1.8 µM with HCC-2998 colon, 0.417 µM with SW-620 colon and 0.857 µM in the assay with UACC-257 melanoma. In addition, the TGI was 5.93 µM in the assay with OVCAR-3 ovarian; 7 µM in the assay on OVCAR-5 ovarian; greater than 33.9 µM with ACHN renal; 4.76 µM in the assay on LOX IMVI melanoma; 51.7 µM in the assay with TK-10 renal; 3.37 µM in the assay with MDA-MB-435. Further, the figures for the TGI in the assay on HCC-2998 colon, in the assay with SW-620 colon and in the assay on UACC-257 melanoma were 6.39 µM, 10.1 µM and 2.22 µM, respectively.
Regarding `CC1(C)CC[C@]2(C(=O)n3ccnc3)CC[C@]3(C)[C@H](C(=O)C=C4[C@@]5(C)C=C(C#N)C(=O)C(C)(C)[C@@H]5CC[C@]43C)[C@@H]2C1`, the GI50 in the assay with OVCAR-3 ovarian was less than 0.01 µM; in the assay on OVCAR-5 ovarian, 0.0103 µM; in the assay with HCT-116 colon, less than 0.0112 µM; with ACHN renal it was less than 0.0114 µM; with TK-10 renal, less than 0.0132 µM; in the assay with MDA-MB-435 it was less than 0.0148 µM. For the same molecule, the values for the GI50 in the assay with HCC-2998 colon and in the assay on UACC-257 melanoma were less than 0.01 µM and 0.0719 µM, respectively. In addition, the TGI with OVCAR-3 ovarian is 0.0994 µM; in the assay with OVCAR-5 ovarian it was 0.137 µM; in the assay on HCT-116 colon, 0.0273 µM; with ACHN renal it was less than 0.0172 µM; in the assay on TK-10 renal, less than 0.0226 µM; in the assay with MDA-MB-435, 0.0373 µM. This molecule also showed a TGI in the assay with HCC-2998 colon of less than 0.01 µM.
Consider `Cn1cc(C2=C(c3c4n(c5ccccc35)CC(CN)C4)C(=O)NC2=O)c2ccccc21` (stereo not given), for which the GI50 was 2.82 µM in the assay on OVCAR-3 ovarian; 7.16 µM in the assay on OVCAR-5 ovarian; 2.32 µM in the assay with HCT-116 colon; 3.16 µM with ACHN renal; 2.98 µM in the assay on LOX IMVI melanoma; 2.94 µM with TK-10 renal. Moreover, the GI50 in the assay on MDA-MB-435 was 1.11 µM; with HCC-2998 colon, 4.01 µM; with SW-620 colon, 2.98 µM; in the assay with UACC-257 melanoma, 3.92 µM. The TGI was 9.35 µM in the assay with OVCAR-3 ovarian; 22.1 µM with OVCAR-5 ovarian; 6.22 µM with HCT-116 colon; 12.3 µM with ACHN renal; 6.92 µM in the assay with LOX IMVI melanoma; 8.07 µM in the assay on TK-10 renal. For the same molecule, the TGI came to 4.72 µM in the assay with MDA-MB-435, 8.02 µM with HCC-2998 colon, 6.84 µM in the assay with SW-620 colon and 7.8 µM with UACC-257 melanoma.
With `Fc1ccc(CNc2c3ccccc3nc3ccccc23)cc1`, the GI50 in the assay with OVCAR-3 ovarian was 2.37 µM; in the assay with OVCAR-5 ovarian it was 2.41 µM; with HCT-116 colon, 2.12 µM; in the assay on ACHN renal, 1.93 µM; in the assay on LOX IMVI melanoma, 1.55 µM; in the assay on TK-10 renal it was 2.83 µM. The GI50 with MDA-MB-435 is 1.89 µM; in the assay on HCC-2998 colon, 1.95 µM; in the assay with SW-620 colon, 1.95 µM; with UACC-257 melanoma it was 2.59 µM. Besides, the TGI with OVCAR-3 ovarian amounted to 5.43 µM; with OVCAR-5 ovarian it was 9.25 µM; in the assay with HCT-116 colon it was 11.8 µM; in the assay with ACHN renal, 5.64 µM; in the assay on LOX IMVI melanoma, 3.07 µM; in the assay with TK-10 renal, 10.6 µM. In addition, the TGI was 4.07 µM in the assay with MDA-MB-435, 4.62 µM in the assay on HCC-2998 colon, 6.84 µM with SW-620 colon and 7.02 µM in the assay on UACC-257 melanoma.
With `CN(C)CCCNC(=O)c1cc(NC(=O)CCNC(=O)c2ccc3c(c2)C(=O)c2ccccc2C3=O)cn1C`, the GI50 is 33.2 µM in the assay with OVCAR-3 ovarian; greater than 100 µM with OVCAR-5 ovarian; greater than 100 µM in the assay with HCT-116 colon; greater than 100 µM with TK-10 renal; greater than 100 µM in the assay on MDA-MB-435; 52.7 µM with HCC-2998 colon. The GI50 with SW-620 colon was greater than 100 µM; in the assay on UACC-257 melanoma it was 21.8 µM. Further, the TGI in the assay with OVCAR-3 ovarian, with OVCAR-5 ovarian, in the assay with HCT-116 colon, with TK-10 renal, in the assay on MDA-MB-435 and in the assay on HCC-2998 colon was greater than 100 µM in each case. The TGI was greater than 100 µM in the assay on SW-620 colon and 95.5 µM in the assay on UACC-257 melanoma.
Consider `CCOc1cc(C=O)c2c(ccc3ccc(OC)c(OC)c32)c1OC`, for which the TGI in the assay with OVCAR-3 ovarian, in the assay on OVCAR-5 ovarian, in the assay on HCT-116 colon, with ACHN renal, with LOX IMVI melanoma and in the assay with TK-10 renal was greater than 100 µM in each case. Moreover, the TGI with MDA-MB-435, with HCC-2998 colon and in the assay with UACC-257 melanoma was greater than 100 µM in each case.
Take `CCc1ccc(CCC(=O)Nc2ncc(Cc3cc(Cl)ccc3Cl)s2)o1`: the GI50 with OVCAR-3 ovarian is 1.33 µM; in the assay with OVCAR-5 ovarian it was 2.21 µM; in the assay on HCT-116 colon, 0.988 µM; with ACHN renal, 1.69 µM; in the assay with LOX IMVI melanoma, 2.04 µM; in the assay with TK-10 renal it was 3.47 µM. Moreover, the GI50 is 0.15 µM in the assay with MDA-MB-435, 2.99 µM in the assay on HCC-2998 colon and 0.935 µM with SW-620 colon. Besides, the TGI in the assay with OVCAR-3 ovarian is 4.76 µM; with OVCAR-5 ovarian, greater than 50 µM; with HCT-116 colon it was 9.1 µM; with ACHN renal it was 11.6 µM; in the assay on LOX IMVI melanoma it was greater than 50 µM; in the assay on TK-10 renal it was greater than 50 µM. The TGI in the assay with MDA-MB-435 was 0.486 µM; in the assay with HCC-2998 colon it was greater than 50 µM; in the assay on SW-620 colon, greater than 50 µM.
`COC1OCC(OS(=O)(=O)c2ccc(C)cc2)C(OC(=O)c2ccccc2)C1OC(=O)c1ccccc1` (stereo not given): the GI50 is 2.95 µM in the assay on OVCAR-3 ovarian; greater than 100 µM in the assay with OVCAR-5 ovarian; 3.45 µM with HCT-116 colon; 8.83 µM in the assay with ACHN renal; 5.05 µM with LOX IMVI melanoma; greater than 100 µM in the assay with TK-10 renal. Moreover, the GI50 with MDA-MB-435 is 0.662 µM; in the assay with HCC-2998 colon, greater than 100 µM; with SW-620 colon it was 3.08 µM. Also, the TGI in the assay with OVCAR-3 ovarian is 61.7 µM; with OVCAR-5 ovarian, greater than 100 µM; in the assay with HCT-116 colon, greater than 100 µM; in the assay with ACHN renal, greater than 100 µM; in the assay with LOX IMVI melanoma, greater than 100 µM; with TK-10 renal it was greater than 100 µM. Moreover, the figures for the TGI with MDA-MB-435, in the assay on HCC-2998 colon and in the assay on SW-620 colon were 3.94 µM, greater than 100 µM and greater than 100 µM, respectively.
